# Data reported in patent US20050106563A1 (Genesis Biotech Inc., priority 2003, published 2005).
# Where no end group is shown, it is not given here.
# Experiments:
# [1] = system: anti-SARS-CoV antibody in human sera; type: binding
# [2] = system: cat anti-feline coronavirus sera; type: binding
# [3] = system: chicken anti-avian infectious bronchitis virus (IBV) sera; type: binding
# anti-SARS-CoV sera IgG = type: binding, human
# [4] = system: IgM specific to SARS-COV N1; type: binding, human
substance,measurement,setting,value
(KHWPQIAQFA)8K4K2K-βA (also: octameric MAP: 8 copies on K4K2K lysine core with C-terminal βAla) [GA155],serum binding during treatment versus recovery period (inflammation epitopes),[1],more strongly during the treatment than during the recovery period
same,response ratio R/T,[2],8/8
same,response ratio R/T,[3],2/3
FVASFRLFAR (SARS Coronavirus) [GA203],detection of SARS-COV antibody (IgG) in patient #51,anti-SARS-CoV sera IgG,can be detected
same,time dependency of antibody binding (time dependent epitopes),anti-SARS-CoV sera IgG,immediate early (days 1-6)
(QRQKKQPTVT)8K4K2K-βA (also: octameric MAP: 8 copies on K4K2K lysine core with C-terminal βAla) [GA172],response ratio R/T,[2],8/8
same,response ratio R/T,[3],3/3
(DHIGTRNPNN)8K4K2K-βA (also: octameric MAP on K4K2K lysine core with C-terminal βAla) [GA151],"Responder (AT>1, positive)/Total samples (R/T)",[1],10/10
same,Responder/Total samples (R/T) value,[1],0
same,share of group 2 regarded as probable SARS patients (17 of 23 cases),[1],74%
same,detection of SARS-COV antibody (IgM) in patient #51,[4],can be detected
same,detection of SARS-COV antibody (IgG) in patient #51,anti-SARS-CoV sera IgG,can be detected
same,time dependency of antibody binding (time dependent epitopes),anti-SARS-CoV sera IgG,immediate early (days 1-6)
same,AbT,[2],2.9
same,response ratio R/T,[2],1/8
same,cross reaction with chicken anti-IBV antiserum,[3],did not cross react
(APATVCGPKL)8K4K2K-βA (also: octameric MAP on K4K2K lysine core with C-terminal βAla) [GA115],cross reaction with chicken anti-IBV antiserum,[3],cross reacted only but weakly
(ASVVNIQKEI)8K4K2K-βA (also: octameric MAP on K4K2K lysine core with C-terminal βAla) [GA291],time dependency of antibody binding (time dependent epitopes),anti-SARS-CoV sera IgG,immediate early (days 1-6)
(FFGMSRIGME)8K4K2K-βA (also: octameric MAP on K4K2K lysine core with C-terminal βAla) [GA158],serum binding during treatment versus recovery period (inflammation epitopes),[1],more strongly during the treatment than during the recovery period
same,response ratio R/T,[2],8/8
same,response ratio R/T,[3],3/3
(IITTDNTFVS)8K4K2K-βA (also: octameric MAP: 8 copies on K4K2K lysine core with C-terminal βAla) [GA132],serum binding during treatment versus recovery period (inflammation epitopes),[1],more strongly during the treatment than during the recovery period
NYKYRYLRHGKLRPFERDISNVPFS [GA91],response ratio R/T,[2],6/8
MSRRRLLACL (SARS Coronavirus) [GA230],detection of SARS-COV antibody (IgG) in patient #51,anti-SARS-CoV sera IgG,can be detected
same,time dependency of antibody binding (time dependent epitopes),anti-SARS-CoV sera IgG,immediate early (days 1-6)
(KKTDEAQPLP)8K4K2K-βA (also: octameric MAP: 8 copies on K4K2K lysine core with C-terminal βAla) [GA170],"Responder (AT>1, positive)/Total samples (R/T)",[1],10/10
same,Responder/Total samples (R/T) value,[1],0
same,share of group 2 regarded as probable SARS patients (17 of 23 cases),[1],74%
same,detection of SARS-COV antibody (IgG) in patient #51,anti-SARS-CoV sera IgG,can be detected
same,time dependency of antibody binding (time dependent epitopes),anti-SARS-CoV sera IgG,immediate early (days 1-6)
same,response ratio R/T,[2],0/8
same,cross reaction with chicken anti-IBV antiserum,[3],cross reacted only but weakly
(RNPNNNAATV)8K4K2K-βA (also: octameric MAP: 8 copies on K4K2K lysine core with C-terminal βAla) [GA152],"Responder (AT>1, positive)/Total samples (R/T)",[1],10/10
same,Responder/Total samples (R/T) value,[1],0
same,share of group 2 regarded as probable SARS patients (17 of 23 cases),[1],74%
same,detection of SARS-COV antibody (IgM) in patient #51,[4],can be detected
same,detection of SARS-COV antibody (IgG) in patient #51,anti-SARS-CoV sera IgG,can be detected
same,time dependency of antibody binding (time dependent epitopes),anti-SARS-CoV sera IgG,immediate early (days 1-6)
same,response ratio R/T,[2],0/8
same,cross reaction with chicken anti-IBV antiserum,[3],did not cross react
(HGAIKLDDKD)8K4K2K-βA (also: octameric MAP: 8 copies on K4K2K lysine core with C-terminal βAla) [GA162],time dependency of antibody binding (time dependent epitopes),anti-SARS-CoV sera IgG,early (days 7-29)
(IAQFAPSASA)8K4K2K-βA (also: octameric MAP: 8 copies on K4K2K lysine core with C-terminal βAla) [GA156],serum binding during treatment versus recovery period (inflammation epitopes),[1],more strongly during the treatment than during the recovery period
(KYFKNHTSPD)8K4K2K-βA (also: octameric MAP: 8 copies on K4K2K lysine core with C-terminal βAla) [GA287],time dependency of antibody binding (time dependent epitopes),anti-SARS-CoV sera IgG,immediate early (days 1-6)
(GSITAQPVKI)8K4K2K-βA (also: octameric MAP: 8 copies on K4K2K lysine core with C-terminal βAla) [GA186],cross reaction with chicken anti-IBV antiserum,[3],cross reacted only but weakly
(GKMKELSPRW)8K4K2K-βA (also: octameric MAP on K4K2K lysine core with C-terminal βAla) [GA142],serum binding during treatment versus recovery period (inflammation epitopes),[1],more strongly during the treatment than during the recovery period
(RINWVTGGIA)8K4K2K-βA (also: octameric MAP: 8 copies on K4K2K lysine core with C-terminal βAla) [GA179],serum binding during treatment versus recovery period (inflammation epitopes),[1],more strongly during the treatment than during the recovery period
same,response ratio R/T,[2],7/8
same,response ratio R/T,[3],3/3
(NAATVLQLPQ)8K4K2K-βA (also: octameric MAP: 8 copies on K4K2K lysine core with C-terminal βAla) [GA153],detection of SARS-COV antibody (IgM) in patient #51,[4],can be detected
(LSPRWYFYYL)8K4K2K-βA (also: octameric MAP: 8 copies on K4K2K lysine core with C-terminal βAla) [GA143],serum binding during treatment versus recovery period (inflammation epitopes),[1],more strongly during the treatment than during the recovery period
(LQLPQGTTLP)8K4K2K-βA (also: octameric MAP: 8 copies on K4K2K lysine core with C-terminal βAla) [GA154],detection of SARS-COV antibody (IgM) in patient #51,[4],can be detected
(GTSWFITQRN)8K4K2K-βA (also: octameric MAP: 8 copies on K4K2K lysine core with C-terminal βAla) [GA129],AbT,[2],> 1
same,response ratio R/T,[2],5/6
(YNYKYRYLRH)8K4K2K-βA (also: octameric MAP: 8 copies on K4K2K lysine core with C-terminal βAla) [GA101],serum binding during treatment versus recovery period (inflammation epitopes),[1],more strongly during the treatment than during the recovery period
same,response ratio R/T,[2],8/8
same,response ratio R/T,[3],3/3
(QPTVTLLPAA)8K4K2K-βA (also: octameric MAP: 8 copies on K4K2K lysine core with C-terminal βAla) [GA173],cross reaction with chicken anti-IBV antiserum,[3],cross reacted only but weakly
(INTNSGPDDQ)8K4K2K-βA (also: octameric MAP: 8 copies on K4K2K lysine core with C-terminal βAla) [GA137],serum binding during treatment versus recovery period (inflammation epitopes),[1],more strongly during the treatment than during the recovery period
(GANKEGIVWV)8K4K2K-βA (also: octameric MAP on K4K2K lysine core with C-terminal βAla) [GA147],serum binding during treatment versus recovery period (inflammation epitopes),[1],more strongly during the treatment than during the recovery period
same,response ratio R/T,[3],1/3
LLACLCKHKK (SARS Coronavirus) [GA231],serum binding during treatment versus recovery period (inflammation epitopes),[1],more strongly during the treatment than during the recovery period
same,detection of SARS-COV antibody (IgG) in patient #51,anti-SARS-CoV sera IgG,can be detected
same,time dependency of antibody binding (time dependent epitopes),anti-SARS-CoV sera IgG,immediate early (days 1-6)
(PPTEPKKDKK)8K4K2K-βA (also: octameric MAP: 8 copies on K4K2K lysine core with C-terminal βAla) [GA168],detection of SARS-COV antibody (IgG) in patient #51,anti-SARS-CoV sera IgG,can be detected
same,time dependency of antibody binding (time dependent epitopes),anti-SARS-CoV sera IgG,immediate early (days 1-6)
(ASLPYGANKE)8K4K2K-βA (also: octameric MAP on K4K2K lysine core with C-terminal βAla) [GA146],serum binding during treatment versus recovery period (inflammation epitopes),[1],more strongly during the treatment than during the recovery period
(RVDFCGKGYH)8K4K2K-βA (also: octameric MAP: 8 copies on K4K2K lysine core with C-terminal βAla) [GA117],serum binding during treatment versus recovery period (inflammation epitopes),[1],more strongly during the treatment than during the recovery period
same,response ratio R/T,[2],6/8
same,response ratio R/T,[3],1/3
"(LRIPVTAEVGSSYFK)8K4K2K-βA (also: octameric MAP: 8 copies on K4K2K lysine core with C-terminal βAla) [GA6, control polypeptide, WSSV VP28 52-66]",response ratio R/T,[2],8/8
same,response ratio R/T,[3],1/3
(RYLRHGKLRP)8K4K2K-βA (also: octameric MAP: 8 copies on K4K2K lysine core with C-terminal βAla) [GA102],serum binding during treatment versus recovery period (inflammation epitopes),[1],more strongly during the treatment than during the recovery period
same,response ratio R/T,[2],8/8
same,response ratio R/T,[3],2/3
(IGYYRRATRR)8K4K2K-βA (also: octameric MAP: 8 copies on K4K2K lysine core with C-terminal βAla) [GA139],serum binding during treatment versus recovery period (inflammation epitopes),[1],more strongly during the treatment than during the recovery period
(GNCDVVIGII)8K4K2K-βA (also: octameric MAP: 8 copies on K4K2K lysine core with C-terminal βAla) [GA134],serum binding during treatment versus recovery period (inflammation epitopes),[1],more strongly during the treatment than during the recovery period
